# Values of other authors, collected in patent US9943503B1, “Pharmaceutical composition for treating bacterial and viral infections” (priority 2017, dated 2018).
# System: common cold
# Settings: adults; review of evidence
row,Structure (SMILES),"prevention of the common cold, evidence"
1,"O=C1O[C@H]([C@@H](O)CO)C(O)=C1O [vitamin C, ascorbic acid]",demonstrated benefit
2,C=CCS[S+]([O-])CC=C (centres unmarked) [Allicin],highly effective
